Assays:
Type in all cases: in vivo
barnyardgrass [1] = test: Test Example 1: herbicidal effects in preemergence treatment under submerged conditions; conditions: dose 2.52 g/a
Summary of the method: (§1)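 Submerged conditions, 4 cm water over alluvial soil. Weeds sown and 2.5-leaf rice transplanted; compound applied preemergence to water surface, doses in g per are. Greenhouse, 25 to 30° C., three weeks, then 0–5 mortality rating.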

bulrush [2] = test: as above; conditions: dose 2.52 g/a
Summary of the method: as §1

ducksalad [3] = test: as above; conditions: dose 2.52 g/a
Summary of the method: as §1

barnyardgrass [4] = test: Test Example 3: herbicidal effects in soil treatment; conditions: dose 6.3 g/a
Summary of the method: (§2)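 Seeds were sown in sterilized diluvial soil and covered with about 1.5 cm of soil. Compounds, formulated as emulsifiable concentrates and diluted with water, were sprayed evenly over the soil surface at set doses in g/a. Herbicidal effect was scored on a rating scale three weeks later.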

water foxtail [5] = test: as above; conditions: dose 6.3 g/a
Summary of the method: as §2

common lambsquater [6] = test: as above; conditions: dose 6.3 g/a
Summary of the method: as §2

wild oat [7] = test: as above; conditions: dose 6.3 g/a
Summary of the method: as §2

giant foxtail [8] = test: as above; conditions: dose 6.3 g/a
Summary of the method: as §2

redroot pigweed [9] = test: as above; conditions: dose 6.3 g/a
Summary of the method: as §2

Italian ryegrass [10] = test: as above; conditions: dose 6.3 g/a
Summary of the method: as §2

large crabgrass [11] = test: as above; conditions: dose 6.3 g/a
Summary of the method: as §2

common ragweed [12] = test: as above; conditions: dose 6.3 g/a
Summary of the method: as §2

common chickweed [13] = test: as above; conditions: dose 6.3 g/a
Summary of the method: as §2

barnyardgrass [14] = test: Test Example 4: herbicidal effect in foliage treatment; conditions: dose 6.3 g/a, three weeks after application
Summary of the method: (§3)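 Foliar spray, post-emergence: 14-day-old greenhouse plants (25–30° C, diluvial soil) treated with water-diluted EC at set g/a doses; visual herbicidal score at 3 wk post-application.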

water foxtail [15] = test: as above; conditions: dose 6.3 g/a, three weeks after application
Summary of the method: as §3

common lambsquater [16] = test: as above; conditions: dose 6.3 g/a, three weeks after application
Summary of the method: as §3

wild oat [17] = test: as above; conditions: dose 6.3 g/a, three weeks after application
Summary of the method: as §3

giant foxtail [18] = test: as above; conditions: dose 6.3 g/a, three weeks after application
Summary of the method: as §3

redroot pigweed [19] = test: as above; conditions: dose 6.3 g/a, three weeks after application
Summary of the method: as §3

beadstraw = test: as above; conditions: dose 6.3 g/a, three weeks after application
Summary of the method: as §3

Italian ryegrass [20] = test: as above; conditions: dose 6.3 g/a, three weeks after application
Summary of the method: as §3

large crabgrass [21] = test: as above; conditions: dose 6.3 g/a, three weeks after application
Summary of the method: as §3

common ragweed [22] = test: as above; conditions: dose 6.3 g/a, three weeks after application
Summary of the method: as §3

common chickweed [23] = test: as above; conditions: dose 6.3 g/a, three weeks after application
Summary of the method: as §3

barnyardgrass [24] = test: Test Example 2: herbicidal effects during the vegetation period under submerged conditions; conditions: treatment during the vegetation period under submerged conditions; dose 2.52 g/a
Summary of the method: (§4)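 Barnyardgrass, bulrush and ducksalad were co-sown in alluvial soil flooded to 4 cm and grown in a greenhouse at 25 to 30° C. At the 1- or 2-leaf stage, water-diluted emulsifiable concentrates went onto the water surface at set doses (g/a). Herbicidal effect was scored three weeks later on a graded scale.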

bulrush [25] = test: as above; conditions: treatment during the vegetation period under submerged conditions; dose 2.52 g/a
Summary of the method: as §4

ducksalad [26] = test: as above; conditions: treatment during the vegetation period under submerged conditions; dose 2.52 g/a
Summary of the method: as §4

transplanted rice = test: Test Example 1: preemergence treatment under submerged conditions, effect on crop; conditions: dose 2.52 g/a
Summary of the method: as §1

Structure (SMILES) | A: barnyardgrass, herbicidal effect (evaluation scale 0-5) (barnyardgrass [1]) | B: bulrush, herbicidal effect (evaluation scale 0-5) (bulrush [2]) | C: ducksalad, herbicidal effect (evaluation scale 0-5) (ducksalad [3]) | A: barnyardgrass, herbicidal effect (evaluation scale 0-5) (barnyardgrass [4]) | G: water foxtail, herbicidal effect (evaluation scale 0-5) (water foxtail [5]) | L: common lambsquater, herbicidal effect (evaluation scale 0-5) (common lambsquater [6]) | F: wild oat, herbicidal effect (evaluation scale 0-5) (wild oat [7]) | E: giant foxtail, herbicidal effect (evaluation scale 0-5) (giant foxtail [8]) | H: Italian ryegrass, herbicidal effect (evaluation scale 0-5) (Italian ryegrass [10]) | D: large crabgrass, herbicidal effect (evaluation scale 0-5) (large crabgrass [11]) | J: common ragweed, herbicidal effect (evaluation scale 0-5) (common ragweed [12]) | N: common chickweed, herbicidal effect (evaluation scale 0-5) (common chickweed [13]) | A: barnyardgrass, herbicidal effect (barnyardgrass [14]) | G: water foxtail, herbicidal effect (water foxtail [15]) | L: common lambsquater, herbicidal effect (common lambsquater [16]) | F: wild oat, herbicidal effect (wild oat [17]) | E: giant foxtail, herbicidal effect (giant foxtail [18]) | K: redroot pigweed, herbicidal effect (redroot pigweed [19]) | O: beadstraw, herbicidal effect (beadstraw) | H: Italian ryegrass, herbicidal effect (Italian ryegrass [20]) | further results
CC1CC(=O)N(Cc2ccccc2NS(=O)(=O)C(F)(F)F)CO1 (centres unmarked) [II-4] | 5 (mortality of 90% or above (nearly complete death)) | 5 (mortality of 90% or above (nearly complete death)) | 5 (mortality of 90% or above (nearly complete death)) | 5 (mortality of 90% or above (nearly complete death)) | 5 (mortality of 90% or above (nearly complete death)) | 4 (mortality of at least 70% and less than 90%) | 0 (mortality of less than 5% (almost ineffective)) | 5 (mortality of 90% or above (nearly complete death)) | 3 (mortality of at least 40% and less than 70%) | 5 (mortality of 90% or above (nearly complete death)) | 4 (mortality of at least 70% and less than 90%) | 5 (mortality of 90% or above (nearly complete death)) | 5 (mortality of 90% or above (nearly complete death)) | 5 (mortality of 90% or above (nearly complete death)) | 3 (mortality of at least 40% and less than 70%) | 0 (mortality of less than 5% (almost ineffective)) | 5 (mortality of 90% or above (nearly complete death)) | 0 (mortality of less than 5% (almost ineffective)) | 4 (mortality of at least 70% and less than 90%) | 3 (mortality of at least 40% and less than 70%) | K: redroot pigweed, herbicidal effect (evaluation scale 0-5) (redroot pigweed [9]): 0 (mortality of less than 5% (almost ineffective)); D: large crabgrass, herbicidal effect (large crabgrass [21]): 5 (mortality of 90% or above (nearly complete death)); J: common ragweed, herbicidal effect (common ragweed [22]): 5 (mortality of 90% or above (nearly complete death)); N: common chickweed, herbicidal effect (common chickweed [23]): 3 (mortality of at least 40% and less than 70%); A: barnyardgrass, herbicidal effect (evaluation scale 0-5) (barnyardgrass [24]): 5 (mortality of 90% or above (nearly complete death)); B: bulrush, herbicidal effect (evaluation scale 0-5) (bulrush [25]): 5 (mortality of 90% or above (nearly complete death)); C: ducksalad, herbicidal effect (evaluation scale 0-5) (ducksalad [26]): 5 (mortality of 90% or above (nearly complete death)); a: transplanted rice, effect on crop (evaluation scale 0-5) (transplanted rice): 0 (mortality of less than 5% (almost ineffective))
CCOC(=O)N(c1ccccc1CN1COC(C)CC1=O)S(=O)(=O)C(F)(F)F (centres unmarked) [II-7] | 5 (mortality of 90% or above (nearly complete death)) | 5 (mortality of 90% or above (nearly complete death)) | 5 (mortality of 90% or above (nearly complete death)) | 5 (mortality of 90% or above (nearly complete death)) | 5 (mortality of 90% or above (nearly complete death)) | 5 (mortality of 90% or above (nearly complete death)) | 2 (mortality of at least 20% and less than 40%) | 5 (mortality of 90% or above (nearly complete death)) | 2 (mortality of at least 20% and less than 40%) | 5 (mortality of 90% or above (nearly complete death)) | 4 (mortality of at least 70% and less than 90%) | 4 (mortality of at least 70% and less than 90%) | 5 (mortality of 90% or above (nearly complete death)) | 5 (mortality of 90% or above (nearly complete death)) | 5 (mortality of 90% or above (nearly complete death)) | 0 (mortality of less than 5% (almost ineffective)) | 5 (mortality of 90% or above (nearly complete death)) | 0 (mortality of less than 5% (almost ineffective)) | 3 (mortality of at least 40% and less than 70%) | 3 (mortality of at least 40% and less than 70%) | K: redroot pigweed, herbicidal effect (evaluation scale 0-5) (redroot pigweed [9]): 0 (mortality of less than 5% (almost ineffective)); D: large crabgrass, herbicidal effect (large crabgrass [21]): 5 (mortality of 90% or above (nearly complete death)); J: common ragweed, herbicidal effect (common ragweed [22]): 5 (mortality of 90% or above (nearly complete death)); N: common chickweed, herbicidal effect (common chickweed [23]): 2 (mortality of at least 20% and less than 40%); A: barnyardgrass, herbicidal effect (evaluation scale 0-5) (barnyardgrass [24]): 5 (mortality of 90% or above (nearly complete death)); B: bulrush, herbicidal effect (evaluation scale 0-5) (bulrush [25]): 5 (mortality of 90% or above (nearly complete death)); C: ducksalad, herbicidal effect (evaluation scale 0-5) (ducksalad [26]): 4 (mortality of at least 70% and less than 90%); a: transplanted rice, effect on crop (evaluation scale 0-5) (transplanted rice): 0 (mortality of less than 5% (almost ineffective))
CC1(C)CC(=O)N(Cc2ccccc2N(C(=O)c2ccccc2)S(=O)(=O)C(F)(F)F)CO1 [II-21] | 5 (mortality of 90% or above (nearly complete death)) | 5 (mortality of 90% or above (nearly complete death)) | 5 (mortality of 90% or above (nearly complete death)) | 5 (mortality of 90% or above (nearly complete death)) | 5 (mortality of 90% or above (nearly complete death)) | 0 (mortality of less than 5% (almost ineffective)) | 0 (mortality of less than 5% (almost ineffective)) | 3 (mortality of at least 40% and less than 70%) | 5 (mortality of 90% or above (nearly complete death)) | 5 (mortality of 90% or above (nearly complete death)) | 5 (mortality of 90% or above (nearly complete death)) | 4 (mortality of at least 70% and less than 90%) | 5 (mortality of 90% or above (nearly complete death)) | 5 (mortality of 90% or above (nearly complete death)) | 4 (mortality of at least 70% and less than 90%) | 0 (mortality of less than 5% (almost ineffective)) | 4 (mortality of at least 70% and less than 90%) | 2 (mortality of at least 20% and less than 40%) | 4 (mortality of at least 70% and less than 90%) | 4 (mortality of at least 70% and less than 90%) | D: large crabgrass, herbicidal effect (large crabgrass [21]): 4 (mortality of at least 70% and less than 90%); J: common ragweed, herbicidal effect (common ragweed [22]): 5 (mortality of 90% or above (nearly complete death)); N: common chickweed, herbicidal effect (common chickweed [23]): 4 (mortality of at least 70% and less than 90%); A: barnyardgrass, herbicidal effect (evaluation scale 0-5) (barnyardgrass [24]): 5 (mortality of 90% or above (nearly complete death)); B: bulrush, herbicidal effect (evaluation scale 0-5) (bulrush [25]): 5 (mortality of 90% or above (nearly complete death)); C: ducksalad, herbicidal effect (evaluation scale 0-5) (ducksalad [26]): 5 (mortality of 90% or above (nearly complete death)); a: transplanted rice, effect on crop (evaluation scale 0-5) (transplanted rice): 0 (mortality of less than 5% (almost ineffective))

Reference: patent US20120029187A1, “HALOALKYLSULFONANILIDE DERIVATIVE” (Nissan Chemical Industries, Ltd., priority 2009, published 2012)
